Like-named read-outs stand apart in the source and are kept apart here.
Assays:
[1] = Visual solubility of DPh-BTBT in solvent for organic transistor production
Procedure: (§1) The resulting mixture was heated in a nitrogen atmosphere under a light-shielding condition at 100° C. for about 6 hours, preparing a composition for organic transistor production. With respect to the resulting composition for organic transistor production, the solubility of the organic semiconductor material was observed. Herein, the solubility was visually evaluated, and a case where no insoluble material was observed was rated as “∘: dissolution”, and a case where an insoluble material was observed was rated as “x: not dissolution”. The same shall apply hereafter.
(§2) The resulting mixture was heated in a nitrogen atmosphere under a light-shielding condition at 100° C. for about 2 hours, preparing a composition for organic transistor production. With respect to the resulting composition for organic transistor production, the solubility of the organic semiconductor material was observed.

[2] = Visual solubility of DNTT in solvent for organic transistor production
Procedure: as §1, §2

[3] = Visual solubility of Rubrene in solvent for organic transistor production; assay type: physicochemical; settings: summary of Examples, 100° C.
Procedure: as §1
Rubrene (compound represented by formula (2-1)) (produced by Tokyo Chemical Industry Co., Ltd.) was used as an organic semiconductor material, and each solvent for organic transistor production shown in Table 2 was used under an environment of 20° C., providing a mixture including the organic semiconductor material in a concentration of 4.00% by weight to 5.00% by weight. The resulting mixture was heated in a nitrogen atmosphere under a light-shielding condition at 100° C. for about 2 hours, preparing a composition for organic transistor production. With respect to the resulting composition for organic transistor production, the solubility of the organic semiconductor material was observed.

[4] = Visual solubility of pentacene in solvent for organic transistor production
Procedure: as §1

| solubility of DPh-BTBT in the solvent compared with tetralin and 1,2,4-trichlorobenzene [1] | solubility of DNTT in the solvent compared with tetralin and 1,2,4-trichlorobenzene [2] | solubility of Rubrene in the solvent compared with tetralin and 1,2,4-trichlorobenzene [3] | solubility of pentacene in the solvent compared with tetralin and 1,2,4-trichlorobenzene [4] | solubility of DPh-BTBT in the solvent compared with tetralin and 1,2,4-trichlorobenzene ([1]; summary of Examples, 100° C.) | solubility of DNTT in the solvent compared with tetralin and 1,2,4-trichlorobenzene ([2]; summary of Examples, 100° C.) | solubility of pentacene in the solvent compared with tetralin and 1,2,4-trichlorobenzene ([4]; summary of Examples, 100° C.) | Compound |
| --- | --- | --- | --- | --- | --- | --- | --- |
| better | better | excellent | better |  |  |  | CN1CCN(C)C1=O [1,3-dimethyl-2-imidazolidinone] |
|  |  | excellent |  | better | better | better | CN1CCCN(C)C1=O [1,3-dimethyl-3,4,5,6-tetrahydro-2(1H)-pyrimidinone] |

From patent US20150144845A1, “SOLVENT OR SOLVENT COMPOSITION FOR ORGANIC TRANSISTOR PRODUCTION” (DAICEL CORPORATION, priority 2012, published 2015)
